The source of these data is patent US11400081B2, “Compounds” (The University of Sheffield, priority 2017, dated 2022).

T1 sequence (Q16602 23-461): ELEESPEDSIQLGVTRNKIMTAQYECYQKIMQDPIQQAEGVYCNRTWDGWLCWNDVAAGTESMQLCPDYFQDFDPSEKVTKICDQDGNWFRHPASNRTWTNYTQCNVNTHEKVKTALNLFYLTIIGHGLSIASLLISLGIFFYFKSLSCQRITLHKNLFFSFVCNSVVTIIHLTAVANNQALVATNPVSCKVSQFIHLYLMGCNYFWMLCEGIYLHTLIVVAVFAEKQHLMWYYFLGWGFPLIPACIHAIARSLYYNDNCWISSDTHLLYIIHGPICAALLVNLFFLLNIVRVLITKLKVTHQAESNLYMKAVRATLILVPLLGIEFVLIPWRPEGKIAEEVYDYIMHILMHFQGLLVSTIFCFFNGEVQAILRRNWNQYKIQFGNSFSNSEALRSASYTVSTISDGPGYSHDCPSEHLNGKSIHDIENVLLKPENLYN
T1 sequence (O60896 24-148): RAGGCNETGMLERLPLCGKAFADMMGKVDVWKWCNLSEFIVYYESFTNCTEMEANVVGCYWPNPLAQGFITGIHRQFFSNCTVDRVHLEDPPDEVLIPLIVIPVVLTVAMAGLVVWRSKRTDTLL

The experiment addresses T1, AM2 receptor (CALCRL+RAMP3) (Homo sapiens, UniProt O60896+Q16602).
T1 construct: host or cells: 1321N1
Kind of experiment: AM2 receptor inhibition, LANCE TR-FRET cAMP agonist-antagonist competition assay. In kind it is cell-based. The note with it: inhibition of AM induced cAMP activation; 1321N1 cells transfected with CALCRL+RAMP3; read-out: AM2 pIC50 (converted). On the procedure:
Compounds were assessed for their ability to inhibit ligand-induced elevations of cAMP, using the Perkin Elmer LANCE cAMP assay using commercially-available cells expressing a specific receptor of interest using the following general procedure:
Compounds were prepared in dimethyl sulfoxide (DMSO—99.9% pure) (Sigma Aldrich, Cat #: D4540) added to powder stocks to produce a 20 mM solution (100% DMSO) that was sonicated at 37° C. for 10 minutes to fully dissolve the compounds. The 20 mM stocks were diluted further in DMSO to produce a 2 mM solution that was sonicated at 37° C. for 10 minutes. 2 mM stocks were dissolved in assay/stimulation buffer to produce a 400 μM solution that was sonicated at 37° C. for 10 minutes for all cAMP assays. All stocks were stored at −20° C. Then serial dilution (Dilution factor 10) was performed to achieve the desire experimental concentrations.
Competition assays were performed according to the manufactures instructions using LANCE® TR-FRET cAMP assay kit (Perkin Elmer, Cat #: AD0264). Serial dilutions (3 μl/well) of the molecules were plated in a 384-well OptiPlate (Perkin Elmer, Cat #: 6007299) in duplicates. Appropriate controls (100% stimulation: Forskolin and 0% stimulation: Vehicle control) (6 μl/well) were included in each plate for data normalization. Following the compound addition, 6 μl of G-protein coupled receptor overexpressing cells/Alexa Fluor antibody solution (1:100 dilution) was added in each well at a desired density of 2500 cells/well. The overexpressing cell lines were purchased from DiscoveRx, Birmingham, UK. After spinning the plate at 1000 rpm for 1 minute and vortexing briefly, the cells were pre-incubated with the compounds for 30 minutes at room temperature (covered). Then 3 μl of the equivalent peptide ligand (EC50 dose) was added to all the wells except vehicle and forskolin controls. The plate were then spun down at 1000 rpm for 1 minute and once finished they were vortexed briefly and covered. Cells were stimulated in the presence of the ligands for 15 minutes at room temperature. After stimulation 12 μl of detection mix (Europium-Chelate streptavidin/biotinylated cAMP tracer solution) was added to all wells and incubated for 60 minutes at room temperature. The plate was then read on the Enspire multimode Plate reader (Perkin Elmer), at; 320/340 nm excitation and 615/665 nm emission was recorded.
• 28 mL Hank's Balanced salt solution (+MgCl2, +CaCl2)—(Thermo Fisher Cat #:14170112) • 150 μl HEPES (1M)—(Thermo Fisher Cat #:15630080) • 400 μl Stabilizer (DTPA) Purified BSA (7.5%)—(Perkin Elmer, Cat #: CR84-100) • 60 μl IBMX (250 mM)—(Sigma Aldrich, Cat #: 15879) Specific cAMP/Agonist-Antagonist Competition Assays
The ability of a compound to inhibit the AM induced cAMP activation in AM2 receptor-expressing cells (1321N1 cells transfected with CALCRL+RAMP3, sourced from DiscoverX catalogue number 95-0169C6) was assessed using the protocol above.
As to `CNCc1ccccc1CN(CC(=O)Nc1ccc2c(c1)CC1(C2)C(=O)Nc2ncccc21)C(=O)C1(C)COC1` (centres unmarked) [Example 58, 3-Methyl-N-(2-((methylamino)methyl)benzyl)-N-(2-oxo-2-((2′-oxo-1,1′,2′,3-tetrahydrospiro[indene-2,3′-pyrrolo[2,3-b]pyridin]-5-yl)amino)ethyl)oxetane-3-carboxamide], the IC50 was 15.1 nM.
Under `CNCc1ccccc1CN(CC(=O)Nc1ccc2c(c1)CC1(C2)C(=O)Nc2ncccc21)C(=O)C(C)(C)OC` (centres unmarked) [Example 59, 2-Methoxy-2-methyl-N-(2-((methylamino)methyl)benzyl)-N-(2-oxo-2-((2′-oxo-1,1′,2′,3-tetrahydrospiro[indene-2,3′-pyrrolo[2,3-b]pyridin]-5-yl)amino)ethyl)propanamide] stands 9.33 nM; under `CNCc1ccccc1CN(CC(=O)Nc1ccc2c(c1)CC1(C2)C(=O)Nc2ncccc21)C(=O)c1cscn1` (centres unmarked) [Example 60, N-(2-((Methylamino)methyl)benzyl)-N-(2-oxo-2-((2′-oxo-1,1′,2′,3-tetrahydrospiro[indene-2,3′-pyrrolo[2,3-b]pyridin]-5-yl)amino)ethyl)thiazole-4-carboxamide], 7.08 nM; under `CNCc1ccccc1CN(CC(=O)Nc1ccc2c(c1)CC1(C2)C(=O)Nc2ncccc21)C(=O)c1csc(C)n1` (centres unmarked) [Example 61, 2-Methyl-N-(2-((methylamino)methyl)benzyl)-N-(2-oxo-2-((2′-oxo-1,1′,2′,3-tetrahydrospiro[indene-2,3′-pyrrolo[2,3-b]pyridin]-5-yl)amino)ethyl)thiazole-4-carboxamide], 219 nM.
As for `CNCc1ccccc1CN(CC(=O)Nc1ccc2c(c1)CC1(C2)C(=O)Nc2ncccc21)C(=O)c1ncsc1C` (centres unmarked) [Example 62, 5-Methyl-N-(2-((methylamino)methyl)benzyl)-N-(2-oxo-2-((2′-oxo-1,1′,2′,3-tetrahydrospiro[indene-2,3′-pyrrolo[2,3-b]pyridin]-5-yl)amino)ethyl)thiazole-4-carboxamide], the IC50 is 42.7 nM.
Under `CNCc1ccccc1CN(CC(=O)Nc1ccc2c(c1)CC1(C2)C(=O)Nc2ncccc21)C(=O)C1CCCO1` (centres unmarked) [Example 63, N-(2-((Methylamino)methyl)benzyl)-N-(2-oxo-2-((2′-oxo-1,1′,2′,3-tetrahydrospiro[indene-2,3′-pyrrolo[2,3-b]pyridin]-5-yl)amino)ethyl)tetrahydrofuran-2-carboxamide] stands 53.7 nM; under `CNCc1ccccc1CN(CC(=O)Nc1ccc2c(c1)CC1(C2)C(=O)Nc2ncccc21)C(=O)C1CCCCO1` (centres unmarked) [Example 64, N-(2-((Methylamino)methyl)benzyl)-N-(2-oxo-2-((2′-oxo-1,1′,2′,3-tetrahydrospiro[indene-2,3′-pyrrolo[2,3-b]pyridin]-5-yl)amino)ethyl)tetrahydro-2H-pyran-2-carboxamide], 85.1 nM.
Under `CNCc1ccccc1CN(CC(=O)Nc1ccc2c(c1)CC1(C2)C(=O)Nc2ncccc21)C(=O)C1CCCC1` (centres unmarked) [Example 65, N-(2-((methylamino)methyl)benzyl)-N-(2-oxo-2-((2′-oxo-1,1′,2′,3-tetrahydrospiro[indene-2,3′-pyrrolo[2,3-b]pyridin]-5-yl)amino)ethyl)cyclopentanecarboxamide] stands 2.82 nM.
For `CNCc1ccccc1CN(CC(=O)Nc1ccc2c(c1)CC1(C2)C(=O)Nc2ncccc21)C(=O)N1CCC(OC)C1` (centres unmarked) [Example 67, 3-Methoxy-N-[[2-(methylaminomethyl)phenyl]methyl]-N-[2-oxo-2-[(2-oxospiro[1H-pyrrolo[2,3-b]pyridine-3,2′-indane]-5′-yl)amino]ethyl]pyrrolidine-1-carboxamide] the value was 64.6 nM.
For the molecule `CNCc1ccccc1CN(CC(=O)Nc1ccc2c(c1)CC1(C2)C(=O)Nc2ncccc21)C(=O)C1CN(C(C)=O)C1` (centres unmarked) [Example 68, 1-(Acetyl)-N-[[2-(methylaminomethyl)phenyl]methyl]-N-[2-oxo-2-[(2-oxospiro[1H-pyrrolo[2,3-b]pyridine-3,2′-indane]-5′-yl)amino]ethyl]azetidine-3-carboxamide], the IC50 is 33.1 nM.
Under `CNCc1ccccc1CN(CC(=O)Nc1ccc2c(c1)CC1(C2)C(=O)Nc2ncccc21)C(=O)C1CCCN1C(C)=O` (centres unmarked) [Example 69, 1-Acetyl-N-[[2-(methylaminomethyl)phenyl]methyl]-N-[2-oxo-2-[(2-oxospiro[1H-pyrrolo[2,3-b]pyridine-3,2′-indane]-5′-yl)amino]ethyl]pyrrolidine-2-carboxamide] stands 129 nM; under `CNCc1ccccc1CN(CC(=O)Nc1ccc2c(c1)CC1(C2)C(=O)Nc2ncccc21)C(=O)C1CCN(C(=O)CN)CC1` (centres unmarked) [Example 70, 1-(2-aminoacetyl)-N-(2-((methylamino)methyl)benzyl)-N-(2-oxo-2-((2′-oxo-1,1′,2′,3-tetrahydrospiro[indene-2,3′-pyrrolo[2,3-b]pyridin]-5-yl)amino)ethyl)piperidine-4-carboxamide bis(2,2,2-trifluoroacetate)], 44.7 nM; under `CNCc1ccccc1CN(CC(=O)Nc1ccc2c(c1)CC1(C2)C(=O)Nc2ncccc21)C(=O)C1CCN(C(=O)N(C)C)CC1` (centres unmarked) [Example 71, N1,N1-dimethyl-N4-(2-((methylamino)methyl)benzyl)-N4-(2-oxo-2-((2′-oxo-1,1′,2′,3-tetrahydrospiro[indene-2,3′-pyrrolo[2,3-b]pyridin]-5-yl)amino)ethyl)piperidine-1,4-dicarboxamide 2,2,2-trifluoroacetate], 2.45 nM.
For `CNCc1ccccc1CN(CC(=O)Nc1ccc2c(c1)CC1(C2)C(=O)Nc2ncccc21)C(=O)C1CCN(C(=O)NC(C)C)CC1` (centres unmarked) [Example 73, N1-isopropyl-N4-(2-((methylamino)methyl)benzyl)-N4-(2-oxo-2-((2′-oxo-1,1′,2′,3-tetrahydrospiro[indene-2,3′-pyrrolo[2,3-b]pyridin]-5-yl)amino)ethyl)piperidine-1,4-dicarboxamide 2,2,2-trifluoroacetate] the value was 8.32 nM; for `CNCc1ccccc1CN(CC(=O)Nc1ccc2c(c1)CC1(C2)C(=O)Nc2ncccc21)C(=O)C1CCN(C(C)=O)C1` (centres unmarked) [Example 74, 1-acetyl-N-(2-((methylamino)methyl)benzyl)-N-(2-oxo-2-((2′-oxo-1,1′,2′,3-tetrahydrospiro[indene-2,3′-pyrrolo[2,3-b]pyridin]-5-yl)amino)ethyl)pyrrolidine-3-carboxamide 2,2,2-trifluoroacetate], 15.5 nM.
With `CNCc1ccccc1CN(CC(=O)Nc1ccc2c(c1)CC1(C2)C(=O)Nc2ncccc21)C(=O)C1(C(F)(F)F)CC1` (centres unmarked) [Example 75, N-[[2-(methylaminomethyl)phenyl]methyl]-N-[2-oxo-2-[(2-oxospiro[1H-pyrrolo[2,3-b]pyridine-3,2′-indane]-5′-yl)amino]ethyl]-1-(trifluoromethyl)cyclopropanecarboxamide 2,2,2-trifluoroacetate], the IC50 was 3.63 nM.
Under `CNCc1ccccc1CN(CC(=O)Nc1ccc2c(c1)CC1(C2)C(=O)Nc2ncccc21)C(=O)C1(C(F)(F)F)CCC1` (centres unmarked) [Example 76, N-[[2-(methylaminomethyl)phenyl]methyl]-N-[2-oxo-2-[(2-oxospiro[1H-pyrrolo[2,3-b]pyridine-3,2′-indane]-5′-yl)amino]ethyl]-1-(trifluoromethyl)cyclobutanecarboxamide 2,2,2-trifluoroacetate] stands 1.35 nM.
